According to patent US7351407B2, “Agents which regulate, inhibit, or modulate the activity and/or expression of connective tissue growth factor (CTGF) as a unique means to both lower intraocular pressure and treat glaucomatous retinopathies/optic neuropathies” (Alcon, Inc., priority 2002, dated 2008):

Legend:
CTGF gene expression = experiment: CTGF QPCR assay for inhibition of basal and TGFβ2-induced CTGF gene expression in cultured human TM cells; format: cell-based; conditions: for inhibition of basal CTGF gene expression (mRNA levels) / inhibition of TGFβ2-induced CTGF gene expression (mRNA levels): cultured human normal or glaucomatous TM cells, QPCR; for inhibition of TGFβ2-induced CTGF gene expression (mRNA levels): TGFβ2-stimulated; for inhibitory activity on CTGF expression: human TM cells, basal or TGFβ2-induced not specified
Description: FIG. 3. Effect of GSK-3 inhibition on CTGF gene expression in glaucomatous TM cells.
FIG. 4. Effect of CDK2 inhibition on CTGF gene expression in glaucomatous TM cells. To determine the effects of CDK inhibition on CTGF gene expression, we measured the effects of the known CDK2 inhibitor GW-8510 (Davis, et al. 2001) on both basal and TGFβ2-stimulated CTGF mRNA expression in a glaucomatous TM cell line (SGTM2697) using QPCR analysis.
The inventors have tested several different compound classes in a CTGF QPCR assay for inhibition of basal and TGFβ2-induced CTGF gene expression in cultured human normal or glaucomatous TM cells. Small molecule inhibitors were targeted at the inhibition of GSK-3, CDK, NAALADase, Protein Kinase C, MEK, p38MAPK, ROCK, VEGF, geranylgeranyl transferase and AGE. Small molecule agonists of PPAR, 5-HT, and P2X7 were also tested for activity. Compounds which target extracellular signal-regulated kinase 1 or 2 (ERK1 or ERK2) may also play a role in basal or TGFβ2-induced CTGF gene expression.
Total RNA was isolated from TM cells using Trizol® reagent according to the manufacturer's instructions (Life Technologies). First strand cDNA was generated from 1 ug of total RNA using random hexamers and TaqMan® Reverse Transcription reagents according to the manufacturer's instructions (PE Biosystems, Foster City, Calif.). The 100 ul reaction was subsequently diluted 20-fold to achieve an effective cDNA concentration of 0.5 ng/ul.
Differential expression of CTGF was verified by quantitative real-time RT-PCR (QPCR) using an ABI Prism® 7700 Sequence Detection System (Applied Biosystems). essentially as described (Shepard et al., IOVS 2001, 42:3173). Primers for CTGF amplification were designed using Primer Express software (Applied Biosystems) and anneal to adjacent exons of Genbank accession # NM_001901.1 ([…], nts 1667-1689 and […], nts 1723-1742) and generate a 76-bp amplicon. Amplification of CTGF was normalized to 18S ribosomal RNA expression using primers designed to the 18S rRNA gene (GenBank accession #X03205 […], nts 1680-1700 and […], nts 1730-1749) which generates a 69-bp amplicon. The SYBR® Green I double-stranded DNA binding dye chemistry (Applied Biosystems) was used to amplify CTGF or 18S cDNA. Specificity of the CTGF and 18S primer pairs was assessed from the PCR product by a combination of DNA sequencing, agarose gel analysis and dissociation curve analysis using the ABI Prism 770 SDS Dissociation Curve software (Applied Biosystems). CTGF or 18S rRNA reactions consisted of 1×SYBR Green PCR Master Mix (Applied Biosystems), 50 nM primer concentrations and 2.5 ng cDNA in a final volume of 50 ul. Thermal cycling conditions consisted of 50° C., 2 min, 95° C. 10 min followed by 40 cycles at 95° C., 15 sec, 60° C., 1 min. Quantification of relative RNA concentrations was done using the relative standard curve method as described in PE Biosystems User Bulletin #2 (http://docs.appliedbiosystems.com/pebiodocs/04303859.pdf). Data analysis was performed with SDS software version 1.9.1 (Applied Biosystems) and MS Excel 97 (Microsoft). Plasmid DNA containing target sequence for CTGF or 18S was used for generating the standard curve. QPCR data are presented as mean±SD.

CDK1 = CDK1 (Homo sapiens, UniProt P06493); conditions: cited from earlier work
CDK4 = CDK4 (Homo sapiens, UniProt P11802); conditions: cited from earlier work
Sequence of CDK4 (P11802 whole entry, species assumed): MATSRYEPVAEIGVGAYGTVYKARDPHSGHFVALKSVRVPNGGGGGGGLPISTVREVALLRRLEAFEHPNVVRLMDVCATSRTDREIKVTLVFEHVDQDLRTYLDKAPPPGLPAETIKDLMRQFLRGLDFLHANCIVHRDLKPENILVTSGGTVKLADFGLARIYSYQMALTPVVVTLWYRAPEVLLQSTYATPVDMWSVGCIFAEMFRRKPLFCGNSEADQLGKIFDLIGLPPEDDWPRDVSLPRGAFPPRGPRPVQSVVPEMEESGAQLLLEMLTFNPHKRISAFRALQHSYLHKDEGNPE
Sequence of CDK4 (P24385 whole entry partner, species assumed): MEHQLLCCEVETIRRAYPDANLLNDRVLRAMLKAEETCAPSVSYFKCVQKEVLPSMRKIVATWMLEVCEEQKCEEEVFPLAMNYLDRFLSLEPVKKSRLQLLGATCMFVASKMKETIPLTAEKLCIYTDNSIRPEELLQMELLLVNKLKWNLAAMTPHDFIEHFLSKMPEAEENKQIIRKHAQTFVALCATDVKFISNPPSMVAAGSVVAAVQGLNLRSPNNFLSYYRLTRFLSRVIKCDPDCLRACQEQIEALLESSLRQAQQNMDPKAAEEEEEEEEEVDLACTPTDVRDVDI

Sequence of CDK1 (P06493 whole entry, species assumed): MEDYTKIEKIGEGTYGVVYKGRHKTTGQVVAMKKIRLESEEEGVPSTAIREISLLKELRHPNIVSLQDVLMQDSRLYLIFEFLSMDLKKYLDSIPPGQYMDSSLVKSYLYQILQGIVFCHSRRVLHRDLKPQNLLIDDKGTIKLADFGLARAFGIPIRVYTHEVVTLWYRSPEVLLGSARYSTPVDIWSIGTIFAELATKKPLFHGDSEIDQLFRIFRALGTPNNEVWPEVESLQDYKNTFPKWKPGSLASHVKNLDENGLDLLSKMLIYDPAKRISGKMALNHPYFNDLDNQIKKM
Sequence of CDK1 (P14635 whole entry partner, species assumed): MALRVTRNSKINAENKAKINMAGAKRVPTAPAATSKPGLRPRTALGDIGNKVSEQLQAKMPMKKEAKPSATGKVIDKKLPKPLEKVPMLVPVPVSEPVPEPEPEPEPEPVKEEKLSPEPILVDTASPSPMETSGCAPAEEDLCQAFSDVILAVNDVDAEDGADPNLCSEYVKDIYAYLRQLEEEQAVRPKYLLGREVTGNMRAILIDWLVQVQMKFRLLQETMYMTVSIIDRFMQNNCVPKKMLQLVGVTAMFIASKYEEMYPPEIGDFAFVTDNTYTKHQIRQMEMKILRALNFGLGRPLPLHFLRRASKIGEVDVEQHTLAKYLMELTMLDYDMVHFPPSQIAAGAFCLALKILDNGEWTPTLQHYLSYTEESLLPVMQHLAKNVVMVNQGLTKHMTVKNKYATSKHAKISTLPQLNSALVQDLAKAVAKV

SMILES | inhibition of basal CTGF gene expression (mRNA levels) (CTGF gene expression) | other results
N#Cc1ccc2[nH]c3c(c2c1)CC(=O)Nc1ccccc1-3 [9-cyanopaullone] | inhibit basal | 
CCCCC[C@H](O)/C=C/C=C\C/C=C\C/C=C\CCCC(=O)O [15(S)HETE] | inhibit basal | 
O=C1Nc2ccc3ncsc3c2/C1=C/Nc1ccc(S(=O)(=O)Nc2ccccn2)cc1 [GW-8510] | inhibit | inhibition of TGFβ2-induced CTGF gene expression (mRNA levels) (CTGF gene expression): inhibit; IC50 (CDK1): 110 nM; IC50 (CDK4): 130 nM
Cn1cc(C2=C(c3ccc(Cl)cc3Cl)C(=O)NC2=O)c2ccccc21 [SB-216763] | inhibit | inhibition of TGFβ2-induced CTGF gene expression (mRNA levels) (CTGF gene expression): inhibit
O=C1Cc2c([nH]c3ccc([N+](=O)[O-])cc23)-c2ccccc2N1 [alsterpaullone] | inhibit basal | 
O=C1Cc2c([nH]c3ccc(Br)cc23)-c2ccccc2N1 [kenpaullone] | inhibit basal | 
CC(C)[C@H](CO)Nc1nc(Nc2cccc(Cl)c2)c2ncn(C(C)C)c2n1 [purvalanol A] |  | inhibitory activity on CTGF expression (CTGF gene expression): inhibitory activity
CC[C@H](CO)Nc1nc(NCc2ccccc2)c2ncn(C(C)C)c2n1 [roscovitine] |  | inhibitory activity on CTGF expression (CTGF gene expression): inhibitory activity
